Values of other authors, collected in patent publication US20070250301A1, “Normalizing cell assay data for models” (Cytokinetics, Inc., A Delaware Corporation, priority 2006, published 2007).
Numbered stars: 1 amine (or outer) side, 2 acyl side, 3 side chain; on linkers, the order of the positions; unused ones are H or OH. Bridge positions count the residues as written; N and C are the ends. Square brackets hold non-standard residues; d marks the D form. Peptide text beside a SMILES is read from it. Trp(2-yl) = O=C([C@H](Cc1c([*:3])[nH]c2ccccc12)N[*:1])[*:2]; Leu(4R-OH,5-OH) = C[C@](O)(CO)C[C@H](N)C(=O)O; cisHyp = O=C(O)[C@@H]1C[C@H](O)CN1

How the values were obtained:
[1] = test system: filamentous F actin around canaliculi and tight junctions
[2] = test system: bile flow; details: rats; resulting in cholestatic injury

| Compound | effect on filamentous F actin [1] | effect on bile flow [2] |
| --- | --- | --- |
| C[C@@H]1NC(=O)[C@H](C[C@@](C)(O)CO)NC(=O)[C@@H]2Cc3c([nH]c4ccccc34)SC[C@H](NC(=O)[C@@H]([C@H](C)O)NC1=O)C(=O)N1C[C@@H](O)C[C@H]1C(=O)N[C@@H](C)C(=O)N2 [phalloidin] (cyclo(A[dT]C[cisHyp]A[Trp(2-yl)][Leu(4R-OH,5-OH)]); thioether 3-6) | increase in filamentous F actin | – |
| C=C1[C@@H](C)[C@H]2[C@H](Cc3ccccc3)NC(=O)[C@]23OC(=O)/C=C/[C@H](O)CCC[C@@H](C)C/C=C/[C@H]3[C@@H]1O [cytochalasin B] | – | prompt arrest of bile flow |
